We go through two compounds from patent publication US20100160454A1, “ANTIMICROBIAL AGENTS, COMPOSITIONS AND PRODUCTS CONTAINING THE SAME, AND METHODS OF USING THE COMPOSITIONS AND PRODUCTS” (Eastman Chemical Company, priority 2008, published 2010).

What all share (assay type): cell-based
Experiment [1] has as its system Candida albicans Wild type. Nature of the experiment: Microbiological challenge testing in BPW broth, graded subculture counts. The following applies: C. albicans. As to the method:
The microorganisms in the table below were used in challenge tests. They were either ATCC (American Type Culture Collection) or “wild type” as indicated. Wild type organisms were problematic organisms previously isolated from chemical products.
All of the microorganisms were grown in Tryptose Soy Broth (TSB), DIFCO™ available from Becton, Dickinson and Company, containing 1% dextrose. Candida albicans and Aspergillus niger, were incubated at 22° C.+/−2° C. for at least 96 hours. All bacteria were incubated at 35° C.+/−2° C. in a humidified incubator for at least 96 hours.
Candida albicans and Aspergillus niger were also grown on Sabouraud Dextrose Agar (SABD) at 22° C. for 7 to 14 days or until full sporulation was achieved.
The following procedure was followed to determine the amount of each challenge material (inoculum broth) needed to produce a 10^8 CFU/mL challenge, which is equivalent to a final test-sample microbial concentration of 10^5 to 10^6 CFU/mL (CFU=colony forming units).
Using a sterile pipette, 1 mL of the growth from each TSB culture was transferred into tubes of 9 mL buffered water (pH 7.2 phosphate buffer) and mixed thoroughly. This was repeated to make serial 1:10 dilutions. Then, 0.1 mL of each sample and dilution was inoculated onto agar plates to produce the equivalent of a further 1:10 dilution. (C. albicans and A. niger were inoculated onto SABD and bacteria were inoculated onto Plate Count Agar (PCA), DIFCO™ available from Becton, Dickinson and Company.) (The normal volume plated for most samples was 0.1 mL. Some samples that could be very low in micro-organisms (high dilutions) were plated using 0.5 mL of inoculum, in order to produce reproducible counts.) The samples were distributed on the plates using the spread-plate technique. The spread-plate technique is carried out by spreading the sample over the entire plate surface using a sterile spreading rod while rotating the plate with a rotary auto-plater. After the inoculum was absorbed completely by the agar, each plate was inverted and incubated (fungi at 22° C.+/−2° C. and bacteria at 35° C.+/−2° C.).
After incubation for at least 48 hours, colonies that had developed on the agar plates were counted (CFU) and recorded with the corresponding dilution. If counting had to be delayed temporarily, plates were refrigerated, preferably no more than 24 hours, until they could be counted. The number of CFU/mL was determined by multiplying the plate count by the dilution factor of the plate counted.
Turbidity in Nepholemetric Turbidity Units (NTU) was measured for each serial dilution using the HF-Micro 100 Model Turbidimeter. For each microorganism, the plate counts were compared to the turbidity readings.
On the day of challenge, the Candida albicans inoculum broth was poured through nonabsorbent sterile gauze and centrifuged. The […] was then diluted with buffered water (pH 7.2 phosphate buffer) until the desired turbidity was reached. Using a hemocytometer, a determination was made whether the challenge contained the desired concentration. Dilutions were made through 1.0×10^8 and three SABD spread plates were inoculated with 0.1 mL of each dilution. The plates were incubated for at least 48 hours and challenge counts were confirmed.
Control substrates (“broth alone”) were prepared for each microorganism separately in triplicate by adding 13.5 mL of Buffered Peptone Water broth (BPW) containing 1% dextrose to each 20-mL glass tube, then adding 1.5 mL challenge material to produce a final concentration at time zero of 10^5 to 10^6 CFU/mL and a total volume of 15 mL.

Experiment [2] deals with Bacillus subtilis ATCC 6633. The experiment in a line: Determination of MIC and MLC in test broth. The following applies: Bacillus subtilis ATCC 6633, 30-day subculture. The protocol: (§1) Two antimicrobial endpoints were investigated. The minimum inhibitory concentration (MIC), which identifies the lowest concentration of test material at which growth for a specific organism is inhibited (by a minimum of 3 log units), reflects “biostatic activity”. The minimum lethal concentration (MLC), or lowest concentration that kills the organism and at which subculturing with growth is not possible, reflects “biocidal activity”. 1,4-CHDM and propylene glycol (PG) were added to previously sterilized screw-cap glass tubes and diluted with Peptone Water Broth with 2 wt % Dextrose (=test broth) to the following dilutions (weight percent): 0.05, 0.075, 0.125, 0.25, 0.5, 0.75, 1.25, 2.5, 5.0, 7.5, 10.0, 15.0, 20.0.
(§2) Each of 12 sets of the above test tubes were challenged with specific organisms (see Table 5) to produce a contamination of between 1.0×10^5 cfu/g and 1.0×10^6 cfu/g in the test broth to which no 1,4-CHDM or propylene glycol had been added. These challenge organisms were prepared in TSB broth, allowed to grow for 72 hours at 35° C.+/−2° C., centrifuged at 2500 rpm for 5 minutes, and the supernatant broth was removed. The microbial pellet was then re-diluted with sterile buffered water to a turbidity that matched previous 1.0×10^6 cfu/g concentrations of that organism's specific growth curve. This challenge was repeated on day 3. Plate counts of both challenges enumerated to within 1.0×10^5+/−5,000 cfu/g after 7 days incubation at 35° C.+/−2° C.
(§3) These tubes were mixed well by inversion (minimum of 25 inversions) and incubated at 35° C.+/−2° C. The tubes were inverted again (minimum of 25 times) on the third and seventh day of incubation and prior to each subculture.
(§4) These subcultures were incubated under optimal conditions and nutrition for no less than 5 days. Subcultures of 0.1 ml, undiluted and diluted 1:10, 1:100, . . . , and 1:10,000, were transferred to plates using the spread plate method onto Plate Count Agar; and SAB Dextrose Agar in addition for the Candida and Aspergillus species; and incubated as follows: 35° C.+/−2° C. for the Plate Count Agar and 22° C.+/−2° C. for the SAB Dextrose plates of Candida albicans and Aspergillus niger. Negative results were not reported before 7 days incubation and counts were performed after no less than 5 days incubation. Counts of Candida and Aspergillus species were made on the agar representing the highest count observed, usually the SAB Dextrose.

Experiment [3] relates to Burkholderia cepacia ATCC 25416. Nature of the experiment: Determination of MIC and MLC in test broth. As to conditions: Burkholderia cepacia ATCC 25416, 30-day subculture. The protocol: as §1, §2, §3, §4
The test system of a further experiment is Proteus vulgaris. The experiment in a line: Determination of MIC and MLC in test broth. The following applies: 30-day subculture. The protocol: as §1, §2, §3, §4
Experiment [4] deals with Pseudomonas aeruginosa ATCC 27853. The experiment in a line: Determination of MIC and MLC in test broth. The following applies: Pseudomonas aeruginosa ATCC 27853, 30-day subculture. As to the method: as §1, §2, §3, §4
For experiment [5], the system named is Escherichia coli ATCC 25922. The experiment in a line: Determination of MIC and MLC in test broth. As to conditions: Escherichia coli ATCC 25922, 30-day subculture. As to the method:
as §1, §2, §3, §4

Experiment [6] concerns Aspergillus niger ATCC 16404. The experiment in a line: Determination of MIC and MLC in test broth. The following applies: Aspergillus niger ATCC 16404, 30-day subculture. As to the method:
as §1, §2, §3, §4

On to `OCC1CCC(CO)CC1` (stereo not drawn) [1,4-CHDM, 1,4-cyclohexanedimethanol], for which the Grade is listed as 3 (100 to 1000 colonies (thus 1000 to 10,000 CFU/mL)) in experiment [1] (0.5% (wt/vol), 3 day); 4 (1000 to 10,000 colonies countable (thus 10,000 CFU/mL to 100,000 CFU/mL)) in experiment [1] (0.5% (wt/vol), 14 day); 4 (1000 to 10,000 colonies countable (thus 10,000 CFU/mL to 100,000 CFU/mL)) in experiment [1] (0.5% (wt/vol), 30 day); 1 (0 to 51 colonies counted (thus 10 to 510 CFU/mL based on 0.1-mL sample)) in experiment [1] (1.25% (wt/vol), 3 day); 3 (100 to 1000 colonies (thus 1000 to 10,000 CFU/mL)) in experiment [1] (1.25% (wt/vol), 14 day); 4 (1000 to 10,000 colonies countable (thus 10,000 CFU/mL to 100,000 CFU/mL)) in experiment [1] (1.25% (wt/vol), 30 day). Also, the Grade in experiment [1] (2.5% (wt/vol), 3 day) is listed as 0; in experiment [1] (2.5% (wt/vol), 14 day), 2 (52 to 100 colonies counted (thus 520 to 1000 CFU/mL)); in experiment [1] (2.5% (wt/vol), 30 day) it was 1 (0 to 51 colonies counted (thus 10 to 510 CFU/mL based on 0.1-mL sample)); in experiment [1] (5.0% (wt/vol), 3 day) it was 0; in experiment [1] (5.0% (wt/vol), 14 day), 0; in experiment [1] (5.0% (wt/vol), 30 day), 0. The “MIC 30 DAYS” value in experiment [2] was determined as 2.5 wt %; in experiment [3], 1.25 wt %; with Proteus vulgaris, 2.5 wt %; in experiment [4] it was 2.5 wt %; in experiment [5], 2.5 wt %; in experiment [6] it was 2.5 wt %. Further, the “MLC 30 DAYS” value in experiment [2] is recorded as above 20 wt %; in experiment [3], 20 wt %; in the experiment with Proteus vulgaris, above 20 wt %; in experiment [4], 20 wt %; in experiment [5], above 20 wt %; in experiment [6] it was above 20 wt %.
On to `CC(O)CO` (stereo not drawn) [PG, propylene glycol], for which the Grade is 5 (More than 10,000 colonies estimated (thus more than 100,000 CFU/mL)) in experiment [1] (0.5% (wt/vol), 3 day); 5 (More than 10,000 colonies estimated (thus more than 100,000 CFU/mL)) in experiment [1] (0.5% (wt/vol), 14 day); 5 (More than 10,000 colonies estimated (thus more than 100,000 CFU/mL)) in experiment [1] (0.5% (wt/vol), 30 day); 5 (More than 10,000 colonies estimated (thus more than 100,000 CFU/mL)) in experiment [1] (1.25% (wt/vol), 3 day); 5 (More than 10,000 colonies estimated (thus more than 100,000 CFU/mL)) in experiment [1] (1.25% (wt/vol), 14 day); 5 (More than 10,000 colonies estimated (thus more than 100,000 CFU/mL)) in experiment [1] (1.25% (wt/vol), 30 day). The Grade in experiment [1] (2.5% (wt/vol), 3 day) is 4 (1000 to 10,000 colonies countable (thus 10,000 CFU/mL to 100,000 CFU/mL)); in experiment [1] (2.5% (wt/vol), 14 day), 4 (1000 to 10,000 colonies countable (thus 10,000 CFU/mL to 100,000 CFU/mL)); in experiment [1] (2.5% (wt/vol), 30 day), 4 (1000 to 10,000 colonies countable (thus 10,000 CFU/mL to 100,000 CFU/mL)); in experiment [1] (5.0% (wt/vol), 3 day), 3 (100 to 1000 colonies (thus 1000 to 10,000 CFU/mL)); in experiment [1] (5.0% (wt/vol), 14 day) it was 4 (1000 to 10,000 colonies countable (thus 10,000 CFU/mL to 100,000 CFU/mL)); in experiment [1] (5.0% (wt/vol), 30 day) it was 4 (1000 to 10,000 colonies countable (thus 10,000 CFU/mL to 100,000 CFU/mL)). Moreover, the “MIC 30 DAYS” value is 10 wt % in experiment [2]; 10 wt % in experiment [3]; 20 wt % with Proteus vulgaris; 10 wt % in experiment [4]; 10 wt % in experiment [5]; 20 wt % in experiment [6]. Further, the “MLC 30 DAYS” value (in experiment [2]; in experiment [3]; in the experiment on Proteus vulgaris; in experiment [4]; in experiment [5]; in experiment [6]) was above 20 wt % each time.
